Data on eight molecules can be found in PMC5945669, “Reversible glycosidic switch for secure delivery of molecular nanocargos” (Nature Communications, 2018).

Series [1] is described as follows: Octanol-to-water partitioning. As to conditions: for partitioning behavior in octanol-water two-phase system: 1-octanol / citric acid buffer pH 5 (Fig. 2f), in words; for Log P (partition coefficient): 24 h, pH 5. The protocol:
Samples from the supernatant were analyzed by HPLC to determine water solubility. The partitioning of compounds between octanol and water was determined by adding 2.5 nmol of each substance to an equal volume (200 µL) mixture of octanol and 0.25 M citric acid, pH 5 and shaking for 24 h to permit equilibration between the two phases. The tubes were then centrifuged at 20,000 × g for 30 min at 20 °C and 20 μL samples from each phase were analyzed by HPLC. The partition coefficient is defined by the following equation, where “C” is the concentration of compound in each phase. A partition coefficient equal to 0 means that the compound equally distributes between each phase.

A short description of series [2]: Regeneration of parental drug 9AC within tumors (tumor vs blood). The format is in vivo, NOD/SCID mice. Conditions: female, NOD/SCID, mouse, intravenous, printed in picture of Fig. 9b, read-out: 9AC per gram of tissue, Tumor vs Blood. The protocol:
Twelve to 16 week old female NOD/SCID immunodeficient mice were inoculated with 10^7 MDA-MB468 human breast cancer cells. When tumors reached ~100 mm^3, the mice were intravenously injected with 14.5 µmol kg^−1 (10 mg kg^−1) of liposomal 9AC-G^W (based on the drug concentration). Blood was collected in Na-heparinized hematocrit tubes from the tail vein and mice were then killed to harvest the tumor tissue. Blood samples (100 µL) were centrifuged at 2500 × g for 3 min and the plasma was collected for analysis. Tumor tissue was homogenized in 3 mL RIPA buffer (25 mM Tris-HCl pH 7.5, 150 mM NaCl, 0.1% SDS, 0.5% Na-deoxycholate, 1% Triton X-100) on a IKA Ultra-Turrax® TP 18/10 homogenizer. The amount of 9AC was determined in blood and tumor samples by HPLC and normalized to amounts per gram of tissue, according to the relationship 1 mL of whole blood = 1.06 g of weight.

Series [3] deals with MDA-MB-468 human breast tumors. As to the kind of experiment: In vivo anticancer activity, subcutaneous human breast cancer xenograft. On the set-up: species or system NOD/SCID mice. As to conditions: four weekly injections. How it is done:
MDA-MB468 human breast cancer cells (10^7 cells in 100 µL PBS) were injected subcutaneously in twelve to sixteen-week old female NOD/SCID immunodeficient mice. When tumors reached sizes ranging from 75 to 100 mm^3, groups of seven mice were treated at weekly intervals for four times with intravenous injections of 9AC at 5.5 µmol kg^−1 (2 mg kg^−1), 9AC-G^W at 14.5 µmol kg^−1 (10 mg kg^−1), liposomal 9AC-G^W at 14.5 µmol kg^−1 (10 mg kg^−1), or doxorubicin liposomes (Doxisome, 1.8 µmol kg^−1 equivalent to 1 mg kg^−1 and 5.5 µmol kg^−1 equivalent to 3 mg kg^−1). Tumor volumes, body weights, and survival were monitored for more than 2 months after treatments started. […] The tumor volume was calculated according to the following formula:2 TumorVolume=Length×Depth×Height/2
On the technique in general: A xenograft is tissue or cells of one species grown in another, often human tumour cells in immunodeficient mice.

For series [4] the following is noted: parental hydrophobic drugs; cited from earlier work.
The nature of series [5]: Water solubility (saturation, HPLC). In kind it is physicochemical. Conditions: 24 h.
The nature of series [6]: Stability and conversion of the lipid-soluble switch in liposomal external and internal buffers. In kind it is physicochemical. As to conditions: 75 °C. How it is done: Error bars, SD, n = 3. c Kinetics of the conversion of 9AC-G^W to lipid-soluble 9AC-G^L, d BQC-G^W to BQC-G^L and e 4MU-G^W to 4MU-G^L in acidic methanol at 62 °C. The HPLC chromatograms show samples at 0, 15, 30, and 60 min. RFU relative fluorescent units. f Partition coefficients (Log scale) between 50 mM citric acid buffer pH 5 and 1-octanol of the parental compounds compared to their respective -G^W and -G^L forms. Error bars: SD, n = 5. g Stability of 9AC-G^L in liposomal external buffer (50 mM citric acid, 250 mM sodium sulfate, pH 5) at 75 °C. Error bars: SD, n = 3. h Conversion of 9AC-G^L to 9AC-G^W in liposomal internal buffer (50 mM HEPES, 250 mM calcium acetate, pH 8.5) at 75 °C. Error bars: SD, n = 3.
Water-soluble 9AC-G^W was obtained by incubating 50 µg 9AC-G^L in 500 µL of liposomal internal buffer at pH 8.5. After 1 h at 65 °C the reaction was analyzed by HPLC to assess the reformation of 9AC-G^W. A 20 µL sample of 9AC-G^W was then transferred to 1 mL of reaction buffer (100 mM sodium acetate, 100 ng mL^−1 bovine serum albumin, pH 4.5) containing 1 µg of purified recombinant human beta-glucuronidase[56] for 1 h at 37 °C to cleave the cue-responsive trigger and generate 9AC. Drug regeneration was also examined in a biological system where 10^5 cells (MDA-MB468, HCC36, and HCC36 anti-PEG) were seeded per well in a 96 well-plate in triplicate and incubated overnight. […]

A short description of series [7]: Pharmacokinetics in plasma after i.v. injection. On the set-up: species or system NOD/SCID female mice. As to conditions: female, NOD/SCID, mouse, in vivo, iv, 35 umol/kg. The protocol: 9AC-G^W was dissolved at 10.9 µmol mL^−1 (7.5 mg mL^−1) in 25 mM phosphate buffer pH 6.5 just before use. 9AC-G^W liposomes were concentrated by successive centrifugations at 5000, 10,000, and 20,000 × g for 30 min at 4 °C. After each centrifugation, the pellet was collected and resuspended in a smaller volume of buffer. The concentration of liposomal 9AC-G^W achieved through this method before injection was 5.1 µmol mL^−1 (3.5 mg mL^−1) based on 9AC-G^W. Each preparation (free 9AC-G^W and liposomal 9AC-G^W) was injected intravenously in the tail vein of 12–16 week old NOD/SCID female mice at 35 µmol kg^−1 (25 mg kg^−1) using three mice per group. Blood samples were collected at 5 min, 30 min, 60 min, 2 h, and 3 h for free 9AC-G^W, in addition to 6, 12, 26, 48, 148 h for 9AC-G^W liposomes with Na-heparinized hematocrit tubes from the tail vein. The plasma was separated from the red blood cells by centrifugation at 2500 × g for 3 min. […] The final results are expressed as 9AC-G^W plasma concentration in µmol L^−1 (µM). Biological half-lives were determined by an exponential two phase decay curve fit on GraphPad prism (GraphPad software, Inc.).

For series [8] the following is noted: in animals; no reference given; cited from earlier work.
The conditions of series [9]: PBS pH 7.4, after 2 hr; no reference given; cited from earlier work.
Details of series [10]: method as in earlier work. Conditions: rats 50, 250, 500 mg/kg i.p. daily; dogs 50 mg/kg i.v.; ref 6 of peer review file; cited from earlier work.

For the molecule `Cc1cc(=O)oc2cc(O[C@@H]3O[C@H](C(=O)O)[C@@H](O)[C@H](O)[C@H]3O)ccc12` [4MU-G^W, 4-methylumbelliferyl-β-D-glucuronide, reference compound], the entries for the “partitioning behavior in octanol-water two-phase system” value (“partitioning behavior” for short) in series [1] and in series [1] (listed as 4MU-G^L) were “partitioned in the aqueous phase” and “slightly lipophilic behavior”, respectively.
In the case of `CC[C@@]1(O)C(=O)OCc2c1cc1n(c2=O)Cc2cc3c(N)cccc3nc2-1` [9AC, 9-aminocamptothecin], the Kp at 24 h in series [2] (24 h post-injection) was above 30. Besides, the Kp at 72 h in series [2] (72 h post-injection) is above 12. The “effect on tumor growth compared with TBS” value in series [3] (5.5 µmol kg^−1 i.v.) was “minimal effect on tumor growth”. Moreover, the water solubility in series [4] is below 50 µg/mL.
A word on the half-life: it is the time in which the quantity being followed falls by half. Lower therefore signals fast loss. Take `CCC1(O)C(=O)OCc2c1cc1n(c2=O)Cc2cc3c(NC(=O)OCc4ccc(OC5OC(C(=O)O)C(O)C(O)C5O)cc4)cccc3nc2-1` [9AC-G^W, 9-aminocamptothecin-β-D-glucuronide]: the “water solubility, fold greater than the parental hydrophobic drug” value in [5] is 680 fold. Moreover, the “partitioning behavior” value in series [1] is recorded as “partitioned in the aqueous phase”; in series [1] (listed as 9AC-G^L), “slightly lipophilic behavior”. Moreover, in [1], the “Log P (partition coefficient)” value is given as ~ 1.1. The “stability in liposomal external buffer” value in series [6] (pH 5 (50 mM citric acid, 250 mM sodium sulfate)) was “stable”. The “conversion in liposomal internal buffer” value in [6] (pH 8.5 (50 mM HEPES, 250 mM calcium acetate)) is given as “rapidly converted to the highly water-soluble 9AC-G^W”. Further, the half-life was 9.3 min in [7] (initial half-life) and 38.6 min in series [7] (terminal half-life). Besides, the “effect on tumor growth compared with TBS” value in series [3] (14.5 µmol kg^−1 i.v.) is “minimal effect on tumor growth”.
In the case of `CCC1(O)C(=O)OCc2c1cc1n(c2=O)Cc2c-1nc1ccc(O)c3c1c2CCC3` (centres unmarked) [BQC, 5,6-dihydro-4H-benzo[de]quinoline-camptothecin, reference compound], in [5], the “Water solubility, fold difference between Parental and -G^W Switch” value was above 3700 ×.
For the molecule `CCC1(O)C(=O)OCc2c1cc1n(c2=O)Cc2c-1nc1ccc(OCc3ccc(OC4OC(C(=O)O)C(O)C(O)C4O)c([N+](=O)[O-])c3)c3c1c2CCC3` [BQC-G^W, 5,6-dihydro-4H-benzo[de]quinoline-camptothecin-β-D-glucuronide], the “water solubility, fold greater than the parental hydrophobic drug” value in series [5] is given as 3700 fold. Moreover, the “partitioning behavior” value in series [1] is “partitioned in the aqueous phase”; in series [1] (listed as BQC-G^L), “slightly lipophilic behavior”. Further, in series [1], the “Log P (partition coefficient)” value is ~ 1.3.
In the case of `OCc1ccccc1` [Benzyl alcohol, benzyl alcohol], the LD50 dose result in series [8] is reported as “greater than 1 g per kg”.
Take `CC[C@@]1(O)C(=O)OCc2c1cc1n(c2=O)Cc2cc3ccccc3nc2-1` [CPT]: the activity remaining in [9] is listed as 10%.
With `O=C[C@H](O)[C@@H](O)[C@H](O)[C@H](O)C(=O)O` [D-glucuronic acid], the “functional or morphological changes after one-month treatment” value in series [10] is listed as “induced neither f unctional nor”.
